Experimental data taken from PubChem BioAssay AID2060483 (Molecular Pharmacology Branch, DTP, NCI, 2025).

Test system: K24384-001-R-PDC complex spheroids, viability
Experiment: Anticancer human tumor K24384-001-R-PDC patient-derived pancreatic adenocarcinoma cell line growth inhibition [GQUAD]
Conditions: for IC50: curve of first compound; for viability, T/C: stronger effect = lower value
From the text: DNA G-quadruplex Stabilizer Agents in Combinations in Complex Spheroids
A high-throughput screen of multi-cell type tumor spheroids was designed to identify active combinations of DNA G-quadruplex stabilizer agents and targeted small molecules. Complex spheroids include a stromal component modeled by human endothelial cells (HUVEC) and fibroblasts modeled by human mesenchymal stem cells (MSCs). The concentration ranges selected for each drug and investigational agent were based upon clinically achievable concentrations if the clinical Cmax of the agent was known.
Compounds. The drugs and investigational agents: pidnarulex (CX-5461; NSC782164), APTO-253 (NSC789042), BRACO-19 (NSC847499), peposertib (NSC802822), ceralasertib (NSC780249), elimusertib (NSC800525), camonsertib (NSC841442), AZD-1390 (NSC803789), olaparib (NSC753686), talazoparib (NSC767125), ART-558 (NSC835418), sotorasib (NSC818433), MRTX-1133 (NSC836407), SN-38 (NSC673596), topotecan (NSC609699), etoposide (NSC141540), doxorubicin (NSC123127), gemcitabine (NSC613327), 5-fluorouracil (NSC19893), paclitaxel (NSC125973), vemurafenib (NSC761431), panobinostat (NSC761190), R-306465 (JNJ-16241199; NSC773264), adavosertib (NSC754352), TP-3654 (NSC805149), carboplatin (NSC241240), KSQ-4279 (NSC840948), and staurosporine (NSC755774) were obtained from the National Cancer Institute (NCI) Developmental Therapeutics Program Chemical Repository (34). The FDA-approved anticancer drug set is available from the NCI Developmental Therapeutics Program. […] The stock solutions were prepared in dimethyl sulfoxide (DMSO, Sigma-Aldrich, St. Louis, MO, cat. D2650) at 800-fold the tested concentration and stored at -70 degrees C prior to their use. All drugs and investigational agents were tested over a range starting from a high concentration at or near the clinical Cmax and decreasing in half-log increments. If the clinical Cmax for an agent had not been determined, the highest concentration tested was 10 microM.
2.3 Cell Culture. All cells were maintained in an incubator at 37 degrees C and 5% CO2 with 95% humidity. The PDC lines were cultured according to standard operating procedures established by the NCI PDMR. All PDCs were thawed and cultured in Matrigel-coated flasks prepared with a working solution of 1X Ham's F-12 nutrient mix, without supplementation (Invitrogen, cat. 11765054), 100 U/mL penicillin-streptomycin (Invitrogen, cat. 15140122), and 2.5% Matrigel (Corning Inc., cat. 354248) for the first three passages. The 857933-349-R-J2-PDC line was cultured in 6C/Colon 1B media, which includes advanced DMEM/F-12 (Thermo Fisher Scientific, cat. 12634028), 10 mM HEPES (Thermo Fisher Scientific, cat. 15630080), 1X GlutaMAX supplement (Thermo Fisher Scientific, cat. 35050061), 0.1 mg/mL primocin (InvivoGen, cat. ant-pm-2), 10% defined fetal bovine serum, heat inactivated (HyClone Laboratories Inc., cat. SH30070.03HI), 50% L-WRN conditioned media (ATCC, cat. CRL-3276), 1.25 mM N-Acetyl-L-cysteine (Sigma-Aldrich, cat. A9165), 10 mM nicotinamide (Sigma-Aldrich, cat. N0636), 1X B-27 supplement (Thermo Fisher Scientific, cat. 17504044), 1X N-2 supplement (Thermo Fisher Scientific, cat. 17502048), 10 microM Y-27632 dihydrochloride (Tocris Bioscience, cat. 1254), and 50 ng/mL human EGF recombinant protein (Thermo Fisher Scientific, cat. PHG0311). The 485176-168-R4-J1-PDC line was cultured in Panc media, which includes all 6C/Colon 1B media components plus 100 ng/mL human FGF-10 (Thermo Fisher Scientific, cat. 100-26), 500 nM SB-431542 (Selleckchem, cat. S1067), and gastrin (Tocris, cat. 3006).
[…]
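Further: spheroids exposed to compounds for seven days.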

IC50 (second compound 0.0316 µM): 1720 nM
IC50 (second compound 0.1 µM): 1680 nM
IC50 (second compound 0.316 µM): 31.6 nM
IC50 (second compound 1 µM): < 31.6 nM
IC50 (second compound 3.16 µM): < 31.6 nM
IC50 (second compound 10 µM): < 31.6 nM
Compound: CC(C)(O)C1CCC(Nc2ccc3ncc(-c4cccc(C(F)(F)F)c4)n3n2)CC1 (configuration not stated) + Cc1cnc(CNC(=O)c2c(=O)c3ccc(N4CCCN(C)CC4)nc3n3c2sc2ccccc23)cn1
viability, T/C (second compound 0.0316 µM, first compound 0.0316 µM): 89%
viability, T/C (second compound 0.0316 µM, first compound 0.1 µM): 85.6%
viability, T/C (second compound 0.0316 µM, first compound 0.316 µM): 90.3%
viability, T/C (second compound 0.0316 µM, first compound 1 µM): 69.2%
viability, T/C (second compound 0.0316 µM, first compound 3.16 µM): 26.6%
viability, T/C (second compound 0.0316 µM, first compound 10 µM): 30.2%
viability, T/C (second compound 0.1 µM, first compound 0.0316 µM): 55.6%
viability, T/C (second compound 0.1 µM, first compound 0.1 µM): 75.8%
viability, T/C (second compound 0.1 µM, first compound 0.316 µM): 72.7%
viability, T/C (second compound 0.1 µM, first compound 1 µM): 76.4%
viability, T/C (second compound 0.1 µM, first compound 3.16 µM): 22.4%
viability, T/C (second compound 0.1 µM, first compound 10 µM): 28.3%
viability, T/C (second compound 0.316 µM, first compound 0.0316 µM): 42.4%
viability, T/C (second compound 0.316 µM, first compound 0.1 µM): 49.8%
viability, T/C (second compound 0.316 µM, first compound 0.316 µM): 46%
viability, T/C (second compound 0.316 µM, first compound 1 µM): 60.9%
viability, T/C (second compound 0.316 µM, first compound 3.16 µM): 28.8%
viability, T/C (second compound 0.316 µM, first compound 10 µM): 28.1%
viability, T/C (second compound 1 µM, first compound 0.0316 µM): 37.1%
viability, T/C (second compound 1 µM, first compound 0.1 µM): 53%
viability, T/C (second compound 1 µM, first compound 0.316 µM): 36.4%
viability, T/C (second compound 1 µM, first compound 1 µM): 42.4%
viability, T/C (second compound 1 µM, first compound 3.16 µM): 22.3%
viability, T/C (second compound 1 µM, first compound 10 µM): 15.1%
viability, T/C (second compound 3.16 µM, first compound 0.0316 µM): 30.4%
viability, T/C (second compound 3.16 µM, first compound 0.1 µM): 40.3%
viability, T/C (second compound 3.16 µM, first compound 0.316 µM): 36.9%
viability, T/C (second compound 3.16 µM, first compound 1 µM): 37.7%
viability, T/C (second compound 3.16 µM, first compound 3.16 µM): 0.14%
viability, T/C (second compound 3.16 µM, first compound 10 µM): 0.16%
viability, T/C (second compound 10 µM, first compound 0.0316 µM): 12.8%
viability, T/C (second compound 10 µM, first compound 0.1 µM): 12.9%
viability, T/C (second compound 10 µM, first compound 0.316 µM): 5.01%
viability, T/C (second compound 10 µM, first compound 1 µM): 0.25%
viability, T/C (second compound 10 µM, first compound 3.16 µM): 0.24%
viability, T/C (second compound 10 µM, first compound 10 µM): 0.23%
